The values that follow come from patent US20260327224A1, “SUBSTITUTED PYRIDOTRIAZOLE COMPOUND, AND PREPARATION METHOD THEREFOR AND USE THEREOF” (ORIGIANT PHARMACEUTICAL CO., LTD., priority 2023, published 2026).

In this assay the test system is HT-29 cells (colon cancer cells). Briefly: In vitro assay for protection of HT-29 cells from necroptosis (TNFα/Smac mimetic/Z-VAD-FMK, CCK-8). Type of assay: cell-based. Particulars: Homo sapiens, Protective Activity Against Necroptosis, TNFα/Smac mimetic/Z-VAD-FMK induced, 24 h. The source says:
Z′=1−3(SDmin+SDmax)/(AVEmax−AVEmin) • wherein: • Min is the positive control Data, and Max is the negative control DMSO Data. • SD is the standard deviation, and AVE is the average. In Vitro Assay for Protection of HT-29 Cells from Necroptosis:
1) Experimental Materials
DMEM medium was purchased from Gibco; penicillin-streptomycin was purchased from Hyclone; TNFα was purchased from Peprotech; Smac mimetic and Z-VAD-FMK were purchased from Selleck; and CCK-8 was purchased from Medchem Express.
HT-29 cells (colon cancer cells) were cultured in DMEM+10% FBS+penicillin/streptomycin. For the experiment, HT-29 cells in the logarithmic phase were collected and seeded into 96-well plates at a specific density (typically 8×10^3 cells/well for adherent cells). The cells were cultured overnight in an incubator at 37° C. with 5% CO2. On the following day, the test compound was diluted with culture medium to the corresponding concentrations and added into the 96-well plate, with 3 replicate wells for each sample. A solvent control group and a blank control group containing only culture medium were set simultaneously. The spiked cells were induced with a combination of TNFα/Smac mimetic/Z-VAD-FMK for 24 h. Subsequently, 10 μL of CCK8 solution was added to each well, and the cells were incubated in an incubator for 1-3 h. Absorbance was measured at […] using a microplate reader, and the cell necrosis protection rate of the drug was calculated using the following formula:
Cell necrosis protection rate=[(X−C0)/(C−C0)]×100% • where C, C0, and X represent the average absorbance values of the solvent control group, the blank control group, and the drug treatment group, respectively. Finally, a cell viability curve was fitted using Graphpad Prism 5.0 software, and the EC50 value of the test compound for inhibiting necroptosis was calculated.

pEC50: −log10 of the molar value.

With `COC(C)C(=O)Nc1nc2cc(-c3ccc4c(c3)c(C(=O)N[C@@H](CF)c3ccc(F)cc3)cn4C)ccn2n1` (some centres unmarked) [Compound 112], the pEC50 (in general, −log10 of the EC50, conventionally taken in molar units) was greater than 9.00.
With `Cn1cc(C(=O)N[C@@H](CF)c2ccc(F)cc2)c2cc(-c3ccn4nc(NC(=O)C5CC5F)nc4c3)ccc21` (some centres unmarked) [Compound 113], the negative-log EC50 (pEC50) was 8.00 to 9.00.
Take `Cn1cc(C(=O)N[C@@H](CF)c2ccc(F)cc2)c2cc(-c3ccn4nc(NC(=O)C5CC5)nc4c3)ccc21` [Compound 114]: the negative logarithm of the EC50 (pEC50) was greater than 9.00.
Consider `C[C@H](NC(=O)c1cn(C)c2ccc(-c3ccn4nc(NC(=O)c5ccnc(F)c5)nc4c3)cc12)c1ccc(F)cc1` [Compound 115], for which the pEC50 was greater than 9.00.
For the molecule `C[C@H](NC(=O)c1cn(C)c2ccc(-c3ccn4nc(NC(=O)N5CCOCC5)nc4c3)cc12)c1ccc(F)cc1` [Compound 116], the negative logarithm of the EC50 (pEC50) is greater than 9.00.
On to `C[C@H](NC(=O)c1cn(C)c2ccc(-c3ccn4nc(NC(=O)[C@H]5CCCO5)nc4c3)cc12)c1ccc(F)cc1` [Compound 117], for which the pEC50 is greater than 9.00.
As for `C[C@H](NC(=O)c1cn(C)c2ccc(-c3ccn4nc(NC(=O)N5CCOCC5)nc4c3)cc12)c1cccc(F)c1` [Compound 118], the pEC50 was greater than 9.00.
Take `C[C@H](NC(=O)c1cn(C)c2ccc(-c3ccn4nc(NC(=O)[C@H]5CCCO5)nc4c3)cc12)c1cccc(F)c1` [Compound 119]: the pEC50 is greater than 9.00.
For the molecule `C[C@H](NC(=O)c1cn(C)c2ccc(-c3ccn4nc(NC(=O)c5cnn(C)c5)nc4c3)cc12)c1cccc(F)c1` [Compound 120], the pEC50 was greater than 9.00.
Take `Cn1cc(C(=O)N[C@H]2CCc3ccc(F)cc32)c2cc(-c3ccn4nc(NC(=O)[C@H]5CCCO5)nc4c3)ccc21` [Compound 121]: the pEC50 is greater than 9.00.
To `Cn1cc(C(=O)Nc2nc3cc(-c4ccc5c(c4)c(C(=O)N[C@H]4CCc6ccc(F)cc64)cn5C)ccn3n2)cn1` [Compound 122] belongs 6.00 to 7.00; to `CN(C)CC(=O)Nc1nc2cc(-c3ccc4c(c3)c(C(=O)N[C@H]3CCc5ccc(F)cc53)cn4C)ccn2n1` [Compound 123], 8.00 to 9.00; to `CC(=O)Nc1nc2cc(-c3ccc4c(c3)c(C(=O)N[C@@H]3C[C@H]3c3ccc(F)c(F)c3)cn4C)ccn2n1` [Compound 125], 5.00 to 6.00.
For `Cn1cc(C(=O)N[C@H]2CCc3cc(C#N)ccc32)c2cc(-c3ccn4nc(NC(=O)C5CC5)nc4c3)ccc21` [Compound 130], the pEC50 is 8.00 to 9.00.
To `CC(=O)Nc1nc2cc(-c3ccc4c(c3)c(C(=O)N[C@H]3CCc5cc(C#N)ccc53)cn4C)ccn2n1` [Compound 132] belongs 6.00 to 7.00; to `Cn1cc(C(=O)N[C@H]2CCCc3cc(F)ccc32)c2cc(-c3ccn4nc(NC(=O)[C@H]5CCCO5)nc4c3)ccc21` [Compound 137], 7.00 to 8.00; to `Cn1cc(C(=O)N[C@H]2CCCc3cc(F)ccc32)c2cc(-c3ccn4nc(NC(=O)[C@@H]5CCCO5)nc4c3)ccc21` [Compound 139], 8.00 to 9.00.
Turning to `Cn1cc(C(=O)Nc2nc3cc(-c4ccc5c(c4)c(C(=O)N[C@H]4CCCc6cc(F)ccc64)cn5C)ccn3n2)cn1` [Compound 141], the pEC50 was 8.00 to 9.00.
As for `Cn1cc(C(=O)N[C@H]2CCCc3cc(F)ccc32)c2cc(-c3ccn4nc(NC(=O)CC#N)nc4c3)ccc21` [Compound 142], the pEC50 was 7.00 to 8.00.
To `Cn1cc(C(=O)Nc2nc3cc(-c4ccc5c(c4)c(C(=O)N[C@H]4CCCc6ccc(F)cc64)cn5C)ccn3n2)cn1` [Compound 143] belongs 8.00 to 9.00.
With `CC(=O)Nc1nc2cc(-c3ccc4c(c3)c(C(=O)N[C@H]3CCCc5ccc(F)cc53)cn4C)ccn2n1` [Compound 145], the pEC50 is 8.00 to 9.00.
With `Cn1cc(C(=O)N[C@H]2CCCc3ccc(F)cc32)c2cc(-c3ccn4nc(NC(=O)[C@H]5CCCO5)nc4c3)ccc21` [Compound 146] the figure was 7.00 to 8.00; with `Cn1cc(C(=O)NC2(c3ccc(F)cc3)COC2)c2cc(-c3ccn4nc(NC(=O)C5CC5)nc4c3)ccc21` [Compound 148], 7.00 to 8.00; with `Cn1cc(C(=O)Nc2nc3cc(-c4ccc5c(c4)c(C(=O)N4CCOC[C@@H]4c4ccc(F)cc4)cn5C)ccn3n2)cn1` [Compound 149], greater than 9.00.
As for `Cn1cc(C(=O)N2CCOC[C@@H]2c2ccc(F)cc2)c2cc(-c3ccn4nc(NC(=O)[C@H]5CCCO5)nc4c3)ccc21` [Compound 150], the pEC50 is greater than 9.00.
Regarding `Cn1cc(C(=O)N2CCOC[C@@H]2c2ccc(F)cc2)c2cc(-c3ccn4nc(NC(=O)C5CC5)nc4c3)ccc21` [Compound 151], the pEC50 was greater than 9.00.
On to `Cn1cc(C(=O)N2CCC[C@H]2c2ccc(F)cc2)c2cc(-c3ccn4nc(NC(=O)N5CCOCC5)nc4c3)ccc21` [Compound 153], for which the pEC50 is greater than 9.00.
With `Cn1cc(C(=O)N2CCC[C@H]2c2ccc(F)cc2)c2cc(-c3ccn4nc(NC(=O)C5CCCO5)nc4c3)ccc21` (some centres unmarked) [Compound 154], the pEC50 is greater than 9.00.
For the molecule `Cn1cc(C(=O)Nc2nc3cc(-c4ccc5c(c4)c(C(=O)N[C@@H](CF)c4cccc(F)c4)cn5C)ccn3n2)cn1` [Compound 155], the pEC50 was greater than 9.00.
For `Cn1cc(C(=O)N2CC(F)CC2c2ccc(F)cc2)c2cc(-c3ccn4nc(NC(=O)C5CC5)nc4c3)ccc21` (centres unmarked) [Compound 156], the pEC50 was greater than 9.00.
As for `Cn1cc(C(=O)N2CC(F)CC2c2ccc(F)cc2)c2cc(-c3ccn4nc(NC(=O)C5CCCO5)nc4c3)ccc21` (centres unmarked) [Compound 157], the pEC50 is greater than 9.00.
Take `Cn1cc(C(=O)N2CC(F)(F)CC2c2ccc(F)cc2)c2cc(-c3ccn4nc(NC(=O)C5CC5)nc4c3)ccc21` (centres unmarked) [Compound 158]: the pEC50 was 5.00 to 6.00.
To `Cn1cc(C(=O)N2CC(F)(F)CC2c2ccc(F)cc2)c2cc(-c3ccn4nc(NC(=O)C5CCOC5)nc4c3)ccc21` (centres unmarked) [Compound 159] belongs greater than 9.00; to `Cn1cc(C(=O)N2CC(F)(F)CC2c2ccc(F)cc2)c2cc(-c3ccn4nc(NC(=O)N5CCOCC5)nc4c3)ccc21` (centres unmarked) [Compound 160], greater than 9.00.
Consider `Cn1cc(C(=O)N[C@H](c2ccc(F)cc2)C(F)F)c2cc(-c3ccn4nc(NC(=O)C5CC5)nc4c3)ccc21` [Compound 161], for which the pEC50 is greater than 9.00.
For the molecule `Cn1cc(C(=O)N[C@H](c2ccc(F)cc2)C(F)F)c2cc(-c3ccn4nc(NC(=O)CN5CCCCC5)nc4c3)ccc21` [Compound 163], the pEC50 is greater than 9.00.
As for `Cn1cc(C(=O)N[C@H](c2ccc(F)cc2)C(F)F)c2cc(-c3ccn4nc(NC(=O)CC#N)nc4c3)ccc21` [Compound 164], the pEC50 was greater than 9.00.
Turning to `CO[C@@H](C)C(=O)Nc1nc2cc(-c3ccc4c(c3)c(C(=O)N[C@H](c3ccc(F)cc3)C(F)F)cn4C)ccn2n1` [Compound 165], the pEC50 is greater than 9.00.
As to `COCC(=O)Nc1nc2cc(-c3ccc4c(c3)c(C(=O)N[C@H](c3ccc(F)cc3)C(F)F)cn4C)ccn2n1` [Compound 166], the negative logarithm of the EC50 (pEC50) is greater than 9.00.
On to `CN(C)CC(=O)Nc1nc2cc(-c3ccc4c(c3)c(C(=O)N[C@H](c3ccc(F)cc3)C(F)F)cn4C)ccn2n1` [Compound 167], for which the pEC50 is greater than 9.00.
`CN1CCC(C(=O)Nc2nc3cc(-c4ccc5c(c4)c(C(=O)N[C@H](c4ccc(F)cc4)C(F)F)cn5C)ccn3n2)C1` (some centres unmarked) [Compound 168]: the pEC50 was greater than 9.00.
Take `Cn1cc(C(=O)N2N=CCC2c2ccc(F)cc2)c2cc(-c3ccn4nc(NC(=O)C5CCOC5)nc4c3)ccc21` (centres unmarked) [Compound 169]: the pEC50 is greater than 9.00.
`Cn1cc(C(=O)N2N=CCC2c2ccc(F)cc2)c2cc(-c3ccn4nc(NC(=O)C5CC5)nc4c3)ccc21` (centres unmarked) [Compound 170]: the negative-log EC50 (pEC50) was greater than 9.00.
Turning to `Cn1cc(C(=O)Nc2nc3cc(-c4ccc5c(c4)c(C(=O)N4N=CCC4c4ccc(F)cc4)cn5C)ccn3n2)cn1` (centres unmarked) [Compound 171], the pEC50 is 8.00 to 9.00.
Turning to `Cn1cc(C(=O)N2N=CCC2c2ccc(F)cc2)c2cc(-c3ccn4nc(NC(=O)N5CCOCC5)nc4c3)ccc21` (centres unmarked) [Compound 172], the pEC50 is 8.00 to 9.00.
To `C[C@@H](c1ccc(F)cc1)N(C)C(=O)c1cn(C)c2ccc(-c3ccn4nc(NC(=O)CN(C)C)nc4c3)cc12` [Compound 174] belongs greater than 9.00.
As for `C[C@@H](c1ccc(F)cc1)N(C)C(=O)c1cn(C)c2ccc(-c3ccn4nc(NC(=O)[C@@H]5CCCO5)nc4c3)cc12` [Compound 176], the pEC50 was greater than 9.00.
For `CC(C(=O)Nc1cn(C)c2ccc(-c3ccn4nc(NC(=O)C5CC5)nc4c3)cc12)c1ccc(F)cc1` (centres unmarked) [Compound 177], the pEC50 is 7.00 to 8.00.
Take `CC(C(=O)Nc1cn(C)c2ccc(-c3ccn4nc(NC(=O)[C@H]5CCCO5)nc4c3)cc12)c1ccc(F)cc1` (some centres unmarked) [Compound 178]: the pEC50 was 6.00 to 7.00.
As for `CC(C(=O)Nc1nn(C)c2ccc(-c3ccn4nc(NC(=O)CN(C)C)nc4c3)cc12)c1ccc(F)cc1` (centres unmarked) [Compound 180], the pEC50 is 5.00 to 6.00.
As to `CC(C(=O)Nc1nn(C)c2ccc(-c3ccn4nc(NC(=O)c5cnn(C)c5)nc4c3)cc12)c1ccc(F)cc1` (centres unmarked) [Compound 181], the pEC50 is 5.00 to 6.00.
With `CC(C(=O)Nc1nn(C)c2ccc(-c3ccn4nc(NC(=O)C5CC5)nc4c3)cc12)c1ccc(F)cc1` (centres unmarked) [Compound 182], the pEC50 is 7.00 to 8.00.
With `Cn1cc(C(=O)N[C@@H](CF)c2cccc(F)c2)c2cc(-c3ccn4nc(NC(=O)[C@H]5CCCO5)nc4c3)ccc21` [Compound 183] the figure was greater than 9.00.
